Measurements: US9006240B2, “Method for assay on the effect of vascularization inhibitor” (Eisai R&D Management Co., Ltd., priority 2005, dated 2015)

What was measured:
[1] = test system: human non-small cell lung cancer cell strain (PC-9); test: Combined application of VEGF receptor kinase inhibitor and EGF inhibitor in PC-9 subcutaneous xenograft model; assay type: in vivo; details: PC-9 xenograft, nude mice, 4 weeks, control 7.51 ± 1.69
Protocol: Combined Application of VEGF Receptor Kinase Inhibitor and EGF Inhibitor in Human Non-Small Cell Lung Cancer Cell Strain (PC-9) Subcutaneous Xenograft Model (In Vivo) […] Then, cells were recovered with trypsin-EDTA. A cell suspension (5×10^7 cells/nil) was prepared with phosphate buffer. The resultant cell suspension was subcutaneously transplanted into the flank of nude mice (0.1 ml/mouse). […] The major axis and minor axis of tumor were measured with a Digimatic Caliper (Mitsutoyo). Then, tumor volume and relative tumor volume were calculated using the following formulas: […]

[2] = test system: human non-small cell lung cancer cell line (A549); test: Combined application of VEGF receptor kinase inhibitor and EGF inhibitor in A549 subcutaneous xenograft model; assay type: in vivo; details: nude mice, 4 weeks, control 9.94 ± 0.77
Protocol: Combined Application of VEGF Receptor Kinase Inhibitor and EGF Inhibitor in Human Non-Small Cell Lung Cancer Cell line (A549) Subcutaneous Xenograft Model (In Vivo) […] Then, cells were recovered with trypsin-EDTA. A cell suspension (5×10^7 cells/ml) was prepared with phosphate buffer containing 50% matrigel. The resultant cell suspension was subcutaneously transplanted into the flank of nude (0.1 ml/mouse). From day 10 of transplantation, 4-(3-chloro-4-(cyclopropylaminocarbonyl)aminophenoxy)-7-methoxy-6-quinolinecarboxamide (a methanesulfonate) and erlotinib were orally administered independently or in combination. With respect to 4-(3-chloro-4-(cyclopropylaminocarbonyl)aminophenoxy)-7-methoxy-6-quinolinecarboxamide (a methanesulfonate), it was administered at 3 mg/kg, 10 mg/kg or 30 mg/kg; once a day; for 4 weeks. With respect to erlotinib, it was administered at 50 mg/kg, once a day, for 4 weeks. The major axis and minor axis of tumor were measured with a Digimatic Caliper (Mitsutoyo). Then, tumor volume and relative tumor volume were calculated using the following formulas: […]

[3] = test system: HMV-1; test: Anti-tumor effect in HMV-1 subcutaneous xenograft model; assay type: in vivo, human; details: HMV-1 xenograft in nude mice; methanesulfonate 100 mg/kg twice a day, one week, oral; day 8 vs day 1
Protocol: (§1) Human tumor cell lines MDA-MB-231, MDA-MB-468, DU145, AsPC-1 (these four lines were purchased from ATCC), A549 (purchased from Dainippon Pharmaceutical Co., Ltd.), Lovo, SK-OV-3, H526, PC-3, DLD-1, HCT116 (these six lines were purchased from ATCC), SEKI, HMV-1 (these two lines were purchased from JCRB cell bank, National Institute of Biomedical Innovation), LOX (purchased from AntiCancer) and A375 (purchased from Dainippon Pharmaceutical Co., Ltd.) were cultured with RPMI1640 (containing 10% FBS) in a 5% CO2 gas incubator until they reached about 80% confluence. After culturing, cells from each line were recovered with trypsin-EDTA by conventional procedures. The cells were suspended in phosphate buffer to prepare a cell suspension of 1×10^8 cells/ml or 5×10^7 cells/ml. […] The major axis and minor axis of tumor were measured with a Digimatic Caliper (Mitsutoyo). Then, tumor volume, relative tumor volume and ΔT/C were calculated using the following formulas: Tumor volume (TV)=tumor major axis (mm)×tumor minor axis^2 (mm^2)/2 Relative tumor volume (RTV)=tumor volume on the measurement day/tumor volume on the starting day of administration ΔT/C=(tumor volume at day 8 of administration groups−tumor volume at day 1 of administration groups)/(tumor volume at day 8 of control group−tumor volume at day 1 of control group)×100 […]

[4] = test system: A375; test: Anti-tumor effect in A375 subcutaneous xenograft model; assay type: in vivo, human; details: A375 xenograft in nude mice; methanesulfonate 100 mg/kg twice a day, one week, oral; day 8 vs day 1
Protocol: as §1

[5] = test system: DLD-1; test: Anti-tumor effect in DLD-1 subcutaneous xenograft model; assay type: in vivo, human; details: DLD-1 xenograft in nude mice; methanesulfonate 100 mg/kg twice a day, one week, oral; day 8 vs day 1
Protocol: as §1

[6] = test system: PC-3; test: Anti-tumor effect in PC-3 subcutaneous xenograft model; assay type: in vivo, human; details: PC-3 xenograft in nude mice; methanesulfonate 100 mg/kg twice a day, one week, oral; day 8 vs day 1
Protocol: as §1

[7] = test system: H526; test: Anti-tumor effect in H526 subcutaneous xenograft model; assay type: in vivo, human; details: H526 xenograft in nude mice; methanesulfonate 100 mg/kg twice a day, one week, oral; day 8 vs day 1
Protocol: as §1

[8] = test system: DU145; test: Anti-tumor effect in DU145 subcutaneous xenograft model; assay type: in vivo, human; details: DU145 xenograft in nude mice; methanesulfonate 100 mg/kg twice a day, one week, oral; day 8 vs day 1
Protocol: as §1

[9] = test system: HCT116; test: Anti-tumor effect in HCT116 subcutaneous xenograft model; assay type: in vivo, human; details: HCT116 xenograft in nude mice; methanesulfonate 100 mg/kg twice a day, one week, oral; day 8 vs day 1
Protocol: as §1

[10] = test system: MDA-MB-468; test: Anti-tumor effect in MDA-MB-468 subcutaneous xenograft model; assay type: in vivo, human; details: MDA-MB-468 xenograft in nude mice; methanesulfonate 100 mg/kg twice a day, one week, oral; day 8 vs day 1
Protocol: as §1

[11] = test system: LOX; test: Anti-tumor effect in LOX subcutaneous xenograft model; assay type: in vivo, human; details: LOX xenograft in nude mice; methanesulfonate 100 mg/kg twice a day, one week, oral; day 8 vs day 1
Protocol: as §1

[12] = test system: MDA-MB-231; test: Anti-tumor effect in MDA-MB-231 subcutaneous xenograft model; assay type: in vivo, human; details: MDA-MB-231 xenograft in nude mice; methanesulfonate 100 mg/kg twice a day, one week, oral; day 8 vs day 1
Protocol: as §1

[13] = test system: SEKI; test: Anti-tumor effect in SEKI subcutaneous xenograft model; assay type: in vivo, human; details: SEKI xenograft in nude mice; methanesulfonate 100 mg/kg twice a day, one week, oral; day 8 vs day 1
Protocol: as §1

[14] = Erlotinib 50 mg/kg oral once a day
[15] = Compound A 10 mg/kg oral once a day

Structure (SMILES) | Relative Tumor Volume at Day 29 Mean ± Standard Deviation [1, 14] | Relative Tumor Volume at Day 29 Mean ± Standard Deviation [2, 14] | ΔT/C [3] [%] | Relative Tumor Volume at Day 29 Mean ± Standard Deviation [1, 15] | ΔT/C [4] [%] | ΔT/C [5] [%] | ΔT/C [6] [%] | ΔT/C [7] [%] | ΔT/C [8] [%] | ΔT/C [9] [%] | ΔT/C [10] [%] | ΔT/C [11] [%] | Relative Tumor Volume at Day 29 Mean ± Standard Deviation ([2]; Compound A 3 mg/kg oral once a day) | Relative Tumor Volume at Day 29 Mean ± Standard Deviation [2, 15] | Relative Tumor Volume at Day 29 Mean ± Standard Deviation ([2]; Compound A 30 mg/kg oral once a day) | ΔT/C [12] [%] | ΔT/C [13] [%]
C#Cc1cccc(Nc2ncnc3cc(OCCOC)c(OCCOC)cc23)c1 [Erlotinib, 4-(3-ethynylphenylamino)-6,7-bis(2-methoxyethoxy)-quinazoline, reference compound] | 3.30 ± 0.19 | 5.71 ± 1.84 | – | – | – | – | – | – | – | – | – | – | – | – | – | – | –
COc1cc2nccc(Oc3ccc(NC(=O)NC4CC4)c(Cl)c3)c2cc1C(N)=O [Compound A, 4-(3-chloro-4-(cyclopropylaminocarbonyl)aminophenoxy)-7-methoxy-6-quinolinecarboxamide] | – | – | > 10 | 2.24 ± 0.54 | > 10 | > 10 | > 10 | > 10 | < −30 | > 10 | < −30 | > 10 | 4.34 ± 0.80 | 2.65 ± 0.45 | 1.65 ± 0.31 | < −30 | > 10
